This is an account of results in patent publication USRE39155E1, “Use of 1,3-oxathiolane nucleoside analogues in the treatment of hepatitis B” (Shire BioChem Inc., priority 1991, dated 2006).

Converted amounts (≈) assume the structure as drawn. Read-outs that look alike come from different tables or passages of the source. Where only a bound is given, the exact number is not on record here.

In one assay the test system is Duck hepatitis B virus. Nature of the assay: Activity against Duck hepatitis B virus in primary duck hepatocyte cultures, DHBV DNA dot-blot. It counts as cell-based. The conditions noted are these: DHBV-infected primary duck hepatocytes. How it is done: The DNA from DHBV-infected hepatocytes was extracted and spotted onto a nitrocellular filter. […] The DNA was extracted from 6-cm cell culture dishes at various times post-plating. In the VC group, cells were harvested at 2, 6, 8, 10, 14, 18 and 20 days. Duplicate samples were spotted for days 14, 18 and 20. […] Drugs were added to the culture at 2 days post-plating and maintained throughout media changes every 2 days. The total intracellular DNA was extracted from cells using the standard phenol extraction method. […] The pellet of nucleic acid was washed with ethanol and dried. The DNA was dissolved in a solution containing 12.5 mM Tris HCl, pH 7.5, 10 mM EDTA, 30% glycerol and 0.01% bromophenol blue.

The subject of the next assay is human hepatitis B virus. Nature of the assay: 2.2.15 cells (Hep G2 transfected with HBV genomic DNA), extracellular HBV DNA dot-blot after 10 day treatment. It is filed as cell-based. How it is done:
(ii) The method used for this test is described in detail in Korba et al. Antiviral Research 15, 217-228, 1992, and summarised below.
Hep G2 cells transfected with human hepatitis B virus genomic DNA (2.2.15 cells) were grown and maintained in RPMI-1640 culture medium containing 5% foetal bovine serum, 2 mM glutamine and 50 μg/ml gentamicin sulphate, and checked routinely for G418 resistance. Cultures of 2.2.15 cells were grown to confluence in 24 well tissue culture plates and maintained for 2 to 3 days in that condition prior to drug treatment.
These solutions were diluted as needed in culture medium.
The culture medium on the confluent cells was changed 24 hours prior to exposure to test compounds. During the 10 day treatment the culture medium was changed daily. After 10 days of treatment the culture medium was collected and frozen at −70° C. for HBV DNA analysis.
To analyse extracellular HBV DNA, 0.2 ml samples of culture medium were incubated for 20 minutes at 25° C. in 1M NaOH/10X SSC (1X SSC is 0.15M NaCl/0.015 M Sodium Citrate, pH 7.2) and then applied to nitrocellulose membranes presoaked in 20X SSC using a blotting apparatus. Samples were neutralised by washing twice with 0.5 ml of 1M Tris, pH 7.2/2M NaCl and once with 5 ml of 20X SSC. Filters were then rinsed in 2X SSC and baked at 80° C. for 1 hour under vacuum.
A purified 3.2 kb EcoRl HBV DNA fragment was labelled with [^32P]dCTP by nick translation and used as a probe to detect HBV DNA on the dot-blot by DNA hybridisation. After washing, the hybridised blot was dried and ^32P was quantified using an Ambis beta scanner.

Another assay concerns hepatitis B virus. Nature of the assay: General statement of activity against hepatitis B virus in vitro and in vivo.
Where [1] appears, read: Duck hepatitis B virus, Hepatocyte, read-out: IC50.
[2] abbreviates: 2.2.15 cells, 10 day treatment, extracellular HBV DNA, read-out: IC50.

Consider `Nc1ccn([C@H]2CS[C@@H](CO)O2)c(=O)n1` (stereo in doubt) [Compound 3TC, (2R,cis)-4-amino-1-(2-hydroxymethyl-1,3-oxathiolan-5-yl)-(1H)-pyrimidin-2-one], for which the IC50 in the assay with Duck hepatitis B virus (setting [1]) was < 1 µg/mL.

Turning to `Nc1nc(N)c2ncn([C@H]3CC[C@@H](CO)O3)c2n1` [ddDAPR, 2,6-diaminopurine-9-β-D-2′,3′-dideoxyribofuranoside], the “IC50” value in the assay with Duck hepatitis B virus came to 0.07 µg/mL (≈ 0.28 µM).

With `Nc1ccn([C@H]2CC[C@@H](CO)O2)c(=O)n1` [ddC, 2′,3′-dideoxycytidine], the IC50 in the assay on human hepatitis B virus (Hepatitis B virus, HepG2, 240 h, read-out: IC50 μM) turned out to be 2.2 µM.

In the case of `Nc1ccn([C@@H]2CS[C@H](CO)O2)c(=O)n1` [Compound 3TC, (2R,cis)-4-amino-1-(2-hydroxymethyl-1,3-oxathiolan-5-yl)-(1H)-pyrimidin-2-one], the “activity against the hepatitis B virus” value in the assay on hepatitis B virus was “active both in vitro and in vivo”. In addition, the IC50 with human hepatitis B virus (Hepatitis B virus, HepG2, 240 h, 2.2.15 cells, 10 day treatment, extracellular HBV DNA, read-out: IC50) stood at 5.6 µM.

In the case of `Nc1nc2c(ncn2[C@H]2C[C@@H](CO)[C@H](O)C2)c(=O)[nH]1` [cdG, carbocyclic deoxyguanosine], in the assay with human hepatitis B virus (setting [2]), the IC50 came to 0.034 µM.

In the case of `Nc1nc2c(ncn2[C@H]2CC[C@@H](CO)O2)c(=O)[nH]1` [ddG, 2′,3′-dideoxy-guanosine], the IC50 in the assay with Duck hepatitis B virus (setting [1]) worked out at 0.07 µg/mL (≈ 0.279 µM).

Take `Nc1ncnc2c1ncn2[C@@H]1O[C@H](COP(=O)(O)O)[C@@H](O)[C@@H]1O` [araAMP, adenosylarabinoside-5′-monophosphate]: the IC50 in the assay with human hepatitis B virus (setting [2]) amounted to 2.9 µM.

On to `Nc1ccn(C2CSC(CO)O2)c(=O)n1` (racemic) [Racemate, cis-4-amino-1-(2-hydroxymethyl-1,3-oxathiolan-5-yl-(1H)-pyrimidin-2-one], for which the “activity against the hepatitis B virus” value in the assay with hepatitis B virus (listed as BCH-189) is “active both in vitro and in vivo”; in the assay on hepatitis B virus (listed as compound of formula (I)), “inhibit the hepatitis B virus both in vitro and in vivo”.
